Measurements reported in patent publication US11957687B2 (REGENERON PHARMACEUTICALS, INC., priority 2019, dated 2024).
Where two headings read alike, the source gives them in different places.

Columns and labels:
HSD17B13 = HSD17B13 (Homo sapiens (Human), UniProt Q7Z5P4); assay: HSD17B13 enzymatic inhibition assay (150 nM or 50 nM HSD17B13); type: biochemical
[1] = Microsome stability assay, human liver microsomes; type: in vitro ADME; settings: 1 μM compound, 0.5 mg/mL microsomal protein; for microsomal CLint at 1 h, 1 µM / half-life at 1 h, 1 µM / microsomal CLint at 1 μM / half-life at 1 μM: human, human liver microsomes, pooled, NADPH, 37° C.; for microsomal CLint at 1 h, 1 µM / microsomal CLint at 1 μM: read-out: Microsome Stability Human liver microsomes Cl; for half-life at 1 h, 1 µM / half-life at 1 μM: read-out: Microsome Stability Human liver microsomes T½
Protocol: Compounds of the disclosure were screened in microsome stability assays. For the screen, test compounds were incubated at 37° C. with either human liver microsomes (Corning; #452117) or mouse liver microsomes (XenoTech; #M1000), pooled from multiple donors, at 1 μM in the presence of a NADPH regenerating system at 0.5 mg/mL microsomal protein. Positive controls included in the assay were testosterone (3A4 substrate), propafenone (2D6) and diclofenac (2C9). Samples were removed at different time points (0, 5, 10, 20, 30 and 60 minutes) and immediately mixed with cold acetonitrile containing internal standard (IS, 200 ng/mL tolbutamide and 200 ng/mL labetalol). Test compounds incubated with microsomes for 60 minutes without the NADPH regenerating system was also included. A single point for each test condition (n=1) was obtained, and samples were analyzed by LC/MS/MS. Disappearance of the test compound was assessed based on peak area ratios of analyte/IS (no standard curve).

[2] = 50 nM HSD17B13, read-out: Inhibition of 50 nM of HSD17B13 IC50
[3] = 150 nM HSD17B13, read-out: Inhibition of 150 nM of HSD17B13 IC50

Chain of HSD17B13 (Q7Z5P4 other isoform, or with tags, fused parts or gaps): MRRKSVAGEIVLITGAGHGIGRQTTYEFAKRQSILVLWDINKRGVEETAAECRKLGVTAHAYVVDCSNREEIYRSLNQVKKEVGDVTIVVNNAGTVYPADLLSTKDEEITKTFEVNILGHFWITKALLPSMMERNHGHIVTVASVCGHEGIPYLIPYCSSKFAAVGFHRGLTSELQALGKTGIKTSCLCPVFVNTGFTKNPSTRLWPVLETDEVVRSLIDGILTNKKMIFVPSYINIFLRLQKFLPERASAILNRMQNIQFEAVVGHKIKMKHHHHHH

Row | SMILES | IC50 (HSD17B13; [2]) | IC50 (HSD17B13; [3]) | Microsome Stability Human liver microsomes % Remaining @60 min [1] | microsomal CLint at 1 h, 1 µM [1] | half-life at 1 h, 1 µM [1] | microsomal CLint at 1 μM [1] | half-life at 1 μM [1]
1 | Cc1ccc(C(NC(=O)c2ccc(C(F)(F)F)[nH]c2=O)c2ccccc2)cc1C (stereo not drawn) [Compound 2A, N-((3,4-dimethylphenyl)(phenyl)methyl)-2-oxo-6-(trifluoromethyl)-1,2-dihydropyridine-3-carboxamide] | 0.28 µM | 1.57 µM | 0.10% | 515 µL/min/mg | 2.7 min | – | –
2 | O=C(NC(c1ccccc1)c1ccc2c(c1)OCO2)c1ccc(C(F)(F)F)[nH]c1=O (stereo not drawn) [Compound 3, N-(benzo[d][1,3]dioxol-5-yl(phenyl)methyl)-2-oxo-6-(trifluoromethyl)-1,2-dihydropyridine-3-carboxamide] | – | 1.31 µM | 1.00% | 217 µL/min/mg | 6.39 min | – | –
3 | O=C(NC(c1ccccc1)c1cccc(C(F)(F)F)c1)c1ccc(C(F)(F)F)[nH]c1=O (stereo not drawn) [Compound 7, 2-oxo-N-(phenyl(3-(trifluoromethyl)phenyl)methyl)-6-(trifluoromethyl)-1,2-dihydropyridine-3-carboxamide] | 3.09 µM | – | 101.00% | – | – | < 9.6 µL/min/mg | > 145 min
4 | CS(=O)(=O)Nc1ccc(C(NC(=O)c2ccc(C(F)(F)F)[nH]c2=O)c2ccccc2)cc1 (stereo not drawn) [Compound 7A, N-((4-(methylsulfonamido)phenyl)(phenyl)methyl)-2-oxo-6-(trifluoromethyl)-1,2-dihydropyridine-3-carboxamide] | 1.1 µM | – | 93.90% | – | – | < 9.6 µL/min/mg | > 145 min
5 | CC(C)Cc1ccc(C(NC(=O)c2ccc(C(F)(F)F)[nH]c2=O)c2ccccc2)cc1 (stereo not drawn) [Compound 13, N-((4-isobutylphenyl)(phenyl)methyl)-2-oxo-6-(trifluoromethyl)-1,2-dihydropyridine-3-carboxamide] | 0.94 µM | – | 1.44% | 138 µL/min/mg | 10.1 min | – | –
6 | O=C(NC(c1ccccc1)c1ccc(Oc2ccccc2)cc1)c1ccc(C(F)(F)F)[nH]c1=O (stereo not drawn) [Compound 16, N-((4-phenoxyphenyl)(phenyl)methyl)-2-oxo-6-(trifluoromethyl)-1,2-dihydropyridine-3-carboxamide] | 0.97 µM | – | 23.30% | – | – | 45.2 µL/min/mg | 30.7 min
7 | O=C(NC(c1ccccc1)c1cccc(O)c1)c1ccc(C(F)(F)F)[nH]c1=O (stereo not drawn) [Compound 18, N-((3-hydroxyphenyl)(phenyl)methyl)-2-oxo-6-(trifluoromethyl)-1,2-dihydropyridine-3-carboxamide] | 2.48 µM | – | 36.60% | 33 µL/min/mg | 42 min | – | –
8 | O=C(NC(c1ccccc1)c1ccccc1O)c1ccc(C(F)(F)F)[nH]c1=O (stereo not drawn) [Compound 35, N-((2-hydroxyphenyl)(phenyl)methyl)-2-oxo-6-(trifluoromethyl)-1,2-dihydropyridine-3-carboxamide] | – | 2.78 µM | 14.90% | 63.4 µL/min/mg | 21.9 min | – | –
9 | CCCc1ccc(C(NC(=O)c2ccc(C(F)(F)F)[nH]c2=O)c2ccccc2)cc1 (stereo not drawn) [Compound 36, 2-oxo-N-(phenyl(4-propylphenyl)methyl)-6-(trifluoromethyl)-1,2-dihydropyridine-3-carboxamide] | 0.68 µM | – | 2.00% | 126 µL/min/mg | 11 min | – | –
10 | CC(C)c1ccc(C(NC(=O)c2ccc(C(F)(F)F)[nH]c2=O)c2ccccc2)cc1 (stereo not drawn) [Compound 37, N-((4-isopropylphenyl)(phenyl)methyl)-2-oxo-6-(trifluoromethyl)-1,2-dihydropyridine-3-carboxamide] | 0.78 µM | – | 5.70% | 92.4 µL/min/mg | 15 min | – | –
11 | Cc1ccc(C(=O)NC(c2ccccc2)c2ccccc2O)c(=O)[nH]1 (stereo not drawn) [Compound 65, N-((2-hydroxyphenyl)(phenyl)methyl)-6-methyl-2-oxo-1,2-dihydropyridine-3-carboxamide] | – | > 30 µM | 50.10% | 118 µL/min/mg | – | – | 11.8 min
12 | COc1ccc2c(c1)CCC2NC(=O)c1ccc(C(F)(F)F)[nH]c1=O (stereo not drawn) [Compound 134, N-(5-methoxy-2,3-dihydro-1H-inden-1-yl)-2-oxo-6-(trifluoromethyl)-1,2-dihydropyridine-3-carboxamide] | 1.41 µM | – | 0.27% | 410 µL/min/mg | 3.38 min | – | –
13 | Cc1ccc(CNC(=O)c2ccc(C(F)(F)F)[nH]c2=O)cc1 [Compound 215, N-(4-methylbenzyl)-2-oxo-6-(trifluoromethyl)-1,2-dihydropyridine-3-carboxamide] | 2.2 µM | – | 1.00% | 414 µL/min/mg | 3.35 min | – | –
14 | CCCC1=C(NC(=O)c2ccc(C(F)(F)F)[nH]c2=O)c2cc(C)ccc2C1O (stereo not drawn) [Compound 544, N-(1-hydroxy-5-methyl-2-propyl-1H-inden-3-yl)-2-oxo-6-(trifluoromethyl)-1,2-dihydropyridine-3-carboxamide] | 1.15 µM | – | – | – | – | – | –

Results, then the compound that gave them:

Row | IC50 (HSD17B13; [2]) | IC50 (HSD17B13; [3]) | Microsome Stability Human liver microsomes % Remaining @60 min [1] | microsomal CLint at 1 h, 1 µM [1] | half-life at 1 h, 1 µM [1] | microsomal CLint at 1 μM [1] | half-life at 1 μM [1] | SMILES
15 | > 10 µM | – | – | – | – | – | – | Cc1ccc2c(c1)N(C(=O)OC(C)(C)C)CCC2NC(=O)c1ccc(C(F)(F)F)[nH]c1=O (stereo not drawn) [Compound 546, tert-butyl 7-methyl-4-(2-oxo-6-(trifluoromethyl)-1,2-dihydropyridine-3-carboxamido)-3,4-dihydroquinoline-1(2H)-carboxylate]
16 | 6.24 µM | – | – | – | – | – | – | C=Cc1cccc2c1CCCC2NC(=O)c1ccc(C(F)(F)F)[nH]c1=O (stereo not drawn) [Compound 547, 2-oxo-6-(trifluoromethyl)-N-(5-vinyl-1,2,3,4-tetrahydronaphthalen-1-yl)-1,2-dihydropyridine-3-carboxamide]
17 | 9.28 µM | – | – | – | – | – | – | O=C(NC1CCCc2c(/C=C/c3ccccc3)cccc21)c1ccc(C(F)(F)F)[nH]c1=O (stereo not drawn) [Compound 548, (E)-2-oxo-N-(5-styryl-1,2,3,4-tetrahydronaphthalen-1-yl)-6-(trifluoromethyl)-1,2-dihydropyridine-3-carboxamide]
18 | 8.37 µM | – | – | – | – | – | – | N#Cc1cccc2c1CCCC2NC(=O)c1ccc(C(F)(F)F)[nH]c1=O (stereo not drawn) [Compound 549, N-(5-cyano-1,2,3,4-tetrahydronaphthalen-1-yl)-2-oxo-6-(trifluoromethyl)-1,2-dihydropyridine-3-carboxamide]
19 | 1.6 µM | – | – | – | – | – | – | Cc1ccc(C(CC2CCCO2)NC(=O)c2ccc(C(F)(F)F)[nH]c2=O)cc1 (stereo not drawn) [Compound 550, 2-oxo-N-(2-(tetrahydrofuran-2-yl)-1-(p-tolyl)ethyl)-6-(trifluoromethyl)-1,2-dihydropyridine-3-carboxamide]
20 | 2.69 µM | – | – | – | – | – | – | Cc1ccc(C(CC2CCOCC2)NC(=O)c2ccc(C(F)(F)F)[nH]c2=O)cc1 (stereo not drawn) [Compound 551, 2-oxo-N-(2-(tetrahydro-2H-pyran-4-yl)-1-(p-tolyl)ethyl)-6-(trifluoromethyl)-1,2-dihydropyridine-3-carboxamide]
21 | 0.59 µM | – | – | – | – | – | – | CC[C@H](C[C@@H](NC(=O)c1ccc(C(F)(F)F)[nH]c1=O)c1ccc(C)cc1)OC [Compound 552, N-((1R,3R)-3-methoxy-1-(p-tolyl)pentyl)-2-oxo-6-(trifluoromethyl)-1,2-dihydropyridine-3-carboxamide]
22 | 2.08 µM | – | – | – | – | – | – | CC[C@@H](C[C@@H](NC(=O)c1ccc(C(F)(F)F)[nH]c1=O)c1ccc(C)cc1)OC [Compound 553, N-((1R,3S)-3-methoxy-1-(p-tolyl)pentyl)-2-oxo-6-(trifluoromethyl)-1,2-dihydropyridine-3-carboxamide]
23 | 2.35 µM | – | – | – | – | – | – | CC[C@@H](O)C[C@@H](NC(=O)c1ccc(C(F)(F)F)[nH]c1=O)c1ccc(C)cc1 [Compound 554, N-((1R,3R)-3-hydroxy-1-(p-tolyl)pentyl)-2-oxo-6-(trifluoromethyl)-1,2-dihydropyridine-3-carboxamide]
24 | > 10 µM | – | – | – | – | – | – | CC[C@H](O)C[C@@H](NC(=O)c1ccc(C(F)(F)F)[nH]c1=O)c1ccc(C)cc1 [Compound 555, N-((1R,3S)-3-hydroxy-1-(p-tolyl)pentyl)-2-oxo-6-(trifluoromethyl)-1,2-dihydropyridine-3-carboxamide]
25 | 2.35 µM | – | – | – | – | – | – | Cc1ccc(C(CC2CCOC2)NC(=O)c2ccc(C(F)(F)F)[nH]c2=O)cc1 (stereo not drawn) [Compound 556, 2-oxo-N-(2-(tetrahydrofuran-3-yl)-1-(p-tolyl)ethyl)-6-(trifluoromethyl)-1,2-dihydropyridine-3-carboxamide]
26 | 4.57 µM | – | – | – | – | – | – | Cc1ccc(C(NC(=O)c2ccc(C(F)(F)F)[nH]c2=O)C2CCOCC2)cc1 (stereo not drawn) [Compound 558, 2-oxo-N-((tetrahydro-2H-pyran-4-yl)(p-tolyl)methyl)-6-(trifluoromethyl)-1,2-dihydropyridine-3-carboxamide]
